The text below walks through data of patent US10087191B2, “Piperidine derivative and preparation method and pharmaceutical use thereof” (Jiangsu Hengrui Medicine Co., Ltd., priority 2015, dated 2018).

By AUC is commonly meant the area under the concentration-time curve, a measure of exposure. As a reminder, the half-life is the time in which the quantity being followed falls by half. In general, MRT refers to a mean duration of stay, worked out from the concentration-time curve. In general, Cmax refers to the highest concentration seen after dosing.

One data set concerns MCF7 cells. Briefly: Inhibition of the proliferation of MCF7 cells (Cell Titer-Glo). The format is cell-based. Conditions: Homo sapiens, MCF-7 cells, 72 hours, read-out: IC50 value of inhibition effect on the proliferation of MCF7 cells. The essentials: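 Viability by Cell Titer-Glo luminescence; IC50 from signal versus log concentration.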
Background: ATP-based viability assays read luminescence as a measure of living cells.

The target of a further data set is estrogen receptor (ER) (Homo sapiens (Human), UniProt P03372). Briefly: Inhibition of the binding of estrogen (E) to estrogen receptor (ER), MCF-7/ERE-luciferase reporter cells. The data set is classed as cell-based. Conditions: MCF-7/ERE-luciferase cells, 0.1 nM estradiol, 24 hours; read-out: IC50 value of inhibition effect on the binding of E to ER. The protocol: The inhibition effect of the compounds on the binding of E to ER in vitro was tested by the following method.
Sequence of estrogen receptor (ER) (P03372 whole entry): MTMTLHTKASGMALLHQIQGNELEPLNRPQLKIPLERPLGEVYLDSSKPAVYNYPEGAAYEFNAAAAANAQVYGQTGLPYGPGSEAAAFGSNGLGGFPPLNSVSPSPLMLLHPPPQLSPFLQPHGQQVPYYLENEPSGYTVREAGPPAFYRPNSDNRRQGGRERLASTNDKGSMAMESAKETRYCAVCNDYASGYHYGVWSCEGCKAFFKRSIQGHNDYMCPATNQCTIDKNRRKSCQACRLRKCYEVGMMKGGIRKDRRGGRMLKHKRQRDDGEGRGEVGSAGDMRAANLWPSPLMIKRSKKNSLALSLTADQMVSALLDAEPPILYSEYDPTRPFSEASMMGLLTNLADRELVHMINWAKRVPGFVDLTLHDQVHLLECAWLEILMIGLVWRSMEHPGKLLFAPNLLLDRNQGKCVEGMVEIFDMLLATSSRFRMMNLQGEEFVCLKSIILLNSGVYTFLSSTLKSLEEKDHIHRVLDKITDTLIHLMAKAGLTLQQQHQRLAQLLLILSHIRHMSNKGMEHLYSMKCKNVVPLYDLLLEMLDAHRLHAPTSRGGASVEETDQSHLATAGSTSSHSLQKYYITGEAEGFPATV
The object of this experiment was to determine the inhibition effect of the compounds on the binding of E to ER, and the in vitro activity of the compounds was evaluated according to the IC50 value.
MCF-7/ERE-luciferase cells were inoculated into the MEM medium (hyclone, SH30024.01B) containing 10% charcoal stripped FBS (Moregate, FBSF), 1% sodium pyruvate (Sigma, Cat. No. S8636), 1% nonessential amino acids (Sigma, Cat. No. M7145) and 500 μg/ml G418 in a 96-well plate with a density of 30,000 cells/well, and the cells were incubated under the conditions of 37° C. and 5% CO2. […] After incubation for 24 hours, the medium was removed, then 0.1 nM estradiol (Sigma, Cat. No. E2758) and 10 μl of the drug diluted with the medium were added to each well, and the control group was added with DMSO. The plate was gently shaken and incubated in a incubator at 37° C., 5% CO2. After 24 hours, the cell culture medium was discarded.
The inhibition effect of the compounds of the present invention on the binding of E to ER was tested by the experiment described above.
On the technique in general: Reporter assays use an easily measured gene product as a stand-in for the process of interest.

A further data set deals with ERα (Homo sapiens (Human), UniProt P03372). The data set is described as follows: Degradation effect on ERα in MCF-7 cells (ERα Duoset ELISA). Conditions: MCF-7 cells; read-out: IC50 value of the degradation effect on ERα. The format is cell-based. The protocol: In order to determine the degradation effect on ER induced by the compounds of the present invention, the following method was used to determine the degradation effect of the compounds of the present invention on ER.
Sequence of ERα (P03372 whole entry): as above
MCF-7 cell line (TChu 74, Cell Bank of Chinese Academy of Sciences typical culture preservation Committee)
ERα Duoset Kit (#DYC5715E, R&D System)
MCF-7 cells were incubated in DMEM/F-12 medium containing 10% FBS.
On the first day of the experiment, MCF-7 cells were resuspended in DMEM/F-12 medium containing 10% FBS treated by activated carbon, then inoculated into a 48-well plate with a density of 50,000 cells/well and incubated for 22-24 hours.
On the second day of the experiment, the test compound was diluted with medium and added to a 48-well plate. The ERα-capture antibody was diluted to 1 μg/ml with PBS, and added to a 96-well plate at 100 μl/well. The plate was sealed and coated overnight at room temperature.
On the third day of the experiment, the coated 96-well plate was washed twice with PBS, added with a sealing solution (1% BSA in PBS) at 110 μl/well and sealed for 1 hour at room temperature. The 48-well plate was washed once with PBS, and the residual liquid was removed. Then, 60 μl of lysis (6 M urea, 1 mM EDTA, 0.5% Triton X-100, 1 mM PMSF, Protease Inhibitor cocktail) was added to each well. After lysis on ice for 15 minutes, the diluent (1 mM EDTA, 0.5% TritonX-100 dissolved in PBS) was added. The cell-diluted lysate was transferred to a 96-well plate at 100 μl/well, then the plate was incubated at room temperature for 2 hours. The diluted primary antibody was added after the plate was washed 4 times with a washing liquid (PBST). After incubation for 1 hour, the 96-well plate was washed 4 times, and the second antibody was added, then the plate was incubated for 30 minutes. After the plate was washed with a washing liquid, TMB chromogenic solution was added and incubated for 15 minutes. The reaction was stopped by the addition of 1 M H2SO4, then the light absorption at 450 nm was read.

The nature of data set [1]: Pharmacokinetics assay in BALB/C nude mice after intragastrical administration. The format is in vivo. Conditions: female, mouse, plasma, po, 3 mg/kg; for AUC: read-out: Area Under Curve AUC; for CL/F: read-out: Clearance CL/F (converted); for half-life: read-out: Half-Life t½ (converted); for MRT: read-out: Mean Residence Time MRT; for Cmax: read-out: Plasma Conc. Cmax. The protocol: BALB/C nude mice were used as test animals. The drug concentration in plasma at different time points was determined by LC/MS/MS after intragastrical administration of the compounds of Examples 10, 14, 20, 21, 57, 68, 71, 73, 74, 76 and 89 to BALB/C nude mice. The pharmacokinetic behavior of the compounds of the present invention was studied and evaluated in BALB/C nude mice.
Ninety-nine (99) female BALB/C nude mice were equally divided into 11 groups, which were purchased from SINO-BRITSH SIPPR/BK LAB. ANIMAL LTD., CO, with Certificate No.: SCXK (Shanghai) 2008-0016.
The appropriate amount of each test compound was weighed, and successively added with 9% PEG400+0.5% tween 80+0.5% PVP+90% aqueous solution of 0.5% CMC.
After an overnight fast, 99 female BALB/C nude mice were equally divided into 11 groups, and administered the test compounds intragastrically at an administration volume of 0.2 mL/10 g.
Blood (0.1 mL) was sampled (3 mice at each time point) at 0.5, 1.0, 2.0, 4.0, 6.0, 8.0, 11.0 and 24.0 hours after administration. The samples were stored in heparinized test tubes, and centrifuged for 10 minutes at 3,500 rpm to separate the blood plasma. The plasma samples were stored at −20° C. The plasma concentration of the test compounds in BALB/C nude mice after intragastrical administration was determined by LC/MS/MS.
Pharmacokinetic parameters of the compounds of Examples 10, 14, 20, 21, 57, 68, 71, 73, 74, 76 and 89 of the present invention are shown below.

Structures are written as SMILES.

For the compound `CC1Cc2cc3c(cc2C(c2c(F)cc(/C=C/C(=O)O)cc2F)N1CC(C)(C)F)OCCO3` [Example 2, (E)-3-(3,5-difluoro-4-((6S,8R/6R,8S)-7-(2-fluoro-2-methylpropyl)-8-methyl-2,3,6,7,8,9-hexahydro-[1,4]dioxino[2,3-g]isoquinolin-6-yl)phenyl)acrylic acid], the values for the IC50 in the data set with MCF7 cells and on estrogen receptor (ER) were 0.49 nM and 3.2 nM, respectively. Moreover, on ERα, the DC50 was 0.95 nM.

In the case of `CNC(=O)COc1ccc2c(c1)CC(C)N(CC(C)(C)F)C2c1c(F)cc(/C=C/C(=O)O)cc1F` [Example 32, (E)-3-(3,5-difluoro-4-((1S,3R/1R,3S)-2-(2-fluoro-2-methylpropyl)-3-methyl-6-(2-(methylamino)-2-oxoethoxy)-1,2,3,4-tetrahydroisoquinolin-1-yl)phenyl)acrylic acid], the IC50 in the data set with MCF7 cells stood at 0.01 nM; at estrogen receptor (ER) it was 1.45 nM. The DC50 at ERα is 0.41 nM.

In the case of `CC1Cc2cc(N3CCOCC3)ccc2C(c2c(F)cc(/C=C/C(=O)O)cc2F)N1CC(C)(C)F` [Example 41, (E)-3-(3,5-difluoro-4-((1S,3R/1R,3S)-2-(2-fluoro-2-methylpropyl)-3-methyl-6-morpholino-1,2,3,4-tetrahydroisoquinolin-1-yl)phenyl)acrylic acid], the IC50 was 1.9 nM in the data set on MCF7 cells and 1.94 nM on estrogen receptor (ER). Also, the DC50 at ERα is 0.36 nM.

As for `CC1Cc2c(ccc(-c3cnn(C)c3)c2F)C(c2c(F)cc(/C=C/C(=O)O)cc2F)N1CC(C)(C)F` [Example 45, (E)-3-(3,5-difluoro-4-((1S,3R/1R,3S)-5-fluoro-2-(2-fluoro-2-methylpropyl)-3-methyl-6-(1-methyl-1H-pyrazol-4-yl)-1,2,3,4-tetrahydroisoquinolin-1-yl)phenyl)acrylic acid], the IC50 came to 0.08 nM with MCF7 cells and 0.87 nM on estrogen receptor (ER). At ERα, the DC50 came out at 2.12 nM.

Take `CCn1cc(-c2ccc3c(c2F)CC(C)N(CC(C)(C)F)C3c2c(F)cc(/C=C/C(=O)O)cc2F)cn1` [Example 47, (E)-3-(4-((1S,3R/1R,3S)-6-(1-ethyl-1H-pyrazol-4-yl)-5-fluoro-2-(2-fluoro-2-methylpropyl)-3-methyl-1,2,3,4-tetrahydroisoquinolin-1-yl)-3,5-difluorophenyl)acrylic acid]: the IC50 came out at 0.71 nM in the data set with MCF7 cells and 1.5 nM on estrogen receptor (ER). Moreover, at ERα, the DC50 is 3.54 nM.

Take `CC1Cc2cc(-c3cnn(CCF)c3)ccc2C(c2c(F)cc(/C=C/C(=O)O)cc2F)N1CC(C)(C)F` [Example 48, (E)-3-(3,5-difluoro-4-((1S,3R/1R,3S)-2-(2-fluoro-2-methylpropyl)-6-(1-(2-fluoroethyl)-1H-pyrazol-4-yl)-3-methyl-1,2,3,4-tetrahydroisoquinolin-1-yl)phenyl)acrylic acid]: the IC50 in the data set on MCF7 cells came out at 0.64 nM; on estrogen receptor (ER) it was 1.82 nM. At ERα, the DC50 stood at 7.36 nM.

Regarding `CC1Cc2cc(-c3cnn(C)c3)ccc2C(c2c(F)cc(/C=C/C(=O)O)cc2F)N1CC(C)(C)F` [Example 55, (E)-3-(3,5-difluoro-4-((1S,3R/1R,3S)-2-(2-fluoro-2-methylpropyl)-3-methyl-6-(1-methyl-1H-pyrazol-4-yl)-1,2,3,4-tetrahydroisoquinolin-1-yl)phenyl)acrylic acid], the IC50 amounted to 0.2 nM in the data set with MCF7 cells and 0.82 nM on estrogen receptor (ER). Further, at ERα, the DC50 turned out to be 0.69 nM.

Consider `CC1Cc2cc(-c3cnn(C4CC4)c3)ccc2C(c2c(F)cc(/C=C/C(=O)O)cc2F)N1CC(C)(C)F` [Example 58, (E)-3-(4-((1S,3R/1R,3S)-6-(1-cyclopropyl-1H-pyrazol-4-yl)-2-(2-fluoro-2-methylpropyl)-3-methyl-1,2,3,4-tetrahydroisoquinolin-1-yl)-3,5-difluorophenyl)acrylic acid], for which the values for the IC50 in the data set on MCF7 cells and on estrogen receptor (ER) were 1.35 nM and 0.84 nM, respectively. Besides, the DC50 at ERα is 1.79 nM.

Consider `CC1Cc2cc(-c3ccccc3)ccc2C(c2c(F)cc(/C=C/C(=O)O)cc2F)N1CC(C)(C)F` [Example 59, (E)-3-(3,5-difluoro-4-((1S,3R/1R,3S)-2-(2-fluoro-2-methylpropyl)-3-methyl-6-phenyl-1,2,3,4-tetrahydroisoquinolin-1-yl)phenyl)acrylic acid], for which the figures for the IC50 with MCF7 cells and at estrogen receptor (ER) were 1.29 nM and 5.56 nM, respectively. For the same compound, the DC50 on ERα worked out at 6.25 nM.

As to `CC1Cc2cc(-c3ccc(N4CCOCC4)cc3)ccc2C(c2c(F)cc(/C=C/C(=O)O)cc2F)N1CC(C)(C)F` [Example 60, (E)-3-(3,5-difluoro-4-((1S,3R/1R,3S)-2-(2-fluoro-2-methylpropyl)-3-methyl-6-(4-morpholinophenyl)-1,2,3,4-tetrahydroisoquinolin-1-yl)phenyl)acrylic acid], the figures for the IC50 with MCF7 cells and at estrogen receptor (ER) were 2.1 nM and 7.12 nM, respectively. The DC50 on ERα was found to be 7.35 nM.

Regarding `CC1Cc2c(oc3cccc(F)c23)C(c2c(F)cc(/C=C/C(=O)O)cc2F)N1CC(C)(C)F` [Example 73, (E)-3-(3,5-difluoro-4-((1R,3R/1S,3S)-5-fluoro-2-(2-fluoro-2-methylpropyl)-3-methyl-1,2,3,4-tetrahydrobenzofuro[2,3-c]pyridin-1-yl)phenyl)acrylic acid], the IC50 in the data set with MCF7 cells turned out to be 0.2 nM. For the same compound, in data set [1], the area under the curve (AUC) turned out to be 3950 ng·h/mL, the CL/F is 210 mL/min/kg, the half-life is 1.47 h and the MRT is 2.45 h. Also, in data set [1], the highest concentration (Cmax) is 1490 ng/mL. In addition, the DC50 on ERα stood at 0.76 nM.

As for `CCn1cc(-c2ccc3oc4c(c3c2)CC(C)N(CC(C)(C)F)C4c2c(F)cc(/C=C/C(=O)O)cc2F)cn1` [Example 76, (E)-3-(4-((1R,3R/1S,3S)-6-(1-ethyl-1H-pyrazol-4-yl)-2-(2-fluoro-2-methylpropyl)-3-methyl-1,2,3,4-tetrahydrobenzofuro[2,3-c]pyridin-1-yl)-3,5-difluorophenyl)acrylic acid], the IC50 in the data set on MCF7 cells stood at 0.59 nM. Besides, in data set [1], the AUC turned out to be 26900 ng·h/mL, the CL/F is 31 mL/min/kg, the half-life was 4.53 h and the mean residence time (MRT) was found to be 5.7 h. Moreover, the highest concentration (Cmax) in data set [1] came out at 5460 ng/mL. In addition, the DC50 on ERα was 2.43 nM.
